In publication PMC3102601 (2011):

Molecular target: phosphonoacetate hydrolase (PAc hydrolase) (Pseudomonas fluorescens, UniProt Q51782)
Type: biochemical

Chain of phosphonoacetate hydrolase (PAc hydrolase) (Q51782 2-407): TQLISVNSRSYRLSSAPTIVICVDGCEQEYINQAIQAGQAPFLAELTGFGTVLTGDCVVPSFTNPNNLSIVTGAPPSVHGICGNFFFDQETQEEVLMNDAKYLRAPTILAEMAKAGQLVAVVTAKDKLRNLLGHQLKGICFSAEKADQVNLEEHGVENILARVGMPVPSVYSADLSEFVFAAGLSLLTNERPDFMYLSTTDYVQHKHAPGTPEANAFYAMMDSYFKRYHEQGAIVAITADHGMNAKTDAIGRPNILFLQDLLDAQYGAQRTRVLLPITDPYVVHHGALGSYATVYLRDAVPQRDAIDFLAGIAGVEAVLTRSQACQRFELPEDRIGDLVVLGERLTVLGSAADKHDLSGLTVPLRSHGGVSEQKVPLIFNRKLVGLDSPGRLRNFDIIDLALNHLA

O=C(O)C(=O)CP(=O)(O)O [phosphonopyruvate]
Ki: 1.2 ± 0.8 mM
